This note sets out measurements from ChEMBL document CHEMBL3272215, “Gliotoxin analogues as inhibitors of reverse transcriptase. 2. Resolution and X-ray crystal structure determination” (J Med Chem, 1978).

This test relates to Moloney murine leukemia virus. Kind of test: Inhibition of Moloney murine leukemia virus reverse transcriptase assessed as [3H]-dTMP incorporation after 30 to 120 mins.

Active and inactive are the calls of the source. The rule behind the calls is not given here.

As to `CN1C(=O)[C@]23SSC[C@@H]4OC(C)(C)O[C@H]4CSS[C@@]1(C)C(=O)N2c1ccccc1C3(C)C`, the logI50 was 0.796. In the case of `CN1C(=O)[C@]23SS[C@@]1(C)C(=O)N2c1ccccc1C3(C)C`, the inhibition entry was “Active”. Regarding `CN1C(=O)[C@@]23SSC[C@@H]4OC(C)(C)O[C@H]4CSS[C@]1(C)C(=O)N2c1ccccc1C3(C)C`, the logI50 turned out to be 0.796. Take `CN1C(=O)[C@@]23SS[C@]1(C)C(=O)N2c1ccccc1C3(C)C`: the inhibition result was “Active”.
